Key:
[1] = test system: primary mouse cortical neurons; test: MTT viability assay in mouse primary cortical neurons; type: cell-based
Description: The compounds were diluted from 250 mM DMSO stocks to a 100 mM stock in DMSO. Thereafter, compounds were diluted to 100 μM, 20 μM, 5 μM, 1 μM, 0.2 μM, 0.05 μM, 0.01 μM and 0.001 μM dilution in medium, so that the final DMSO concentration in the well was 0.1% for all conditions. Stock solutions were stored at −20° C. until further use.
Isolation and treatment of primary mouse cortical neurons: Primary cortical neurons were prepared from timed pregnant wild-type C57BL/6JRccHsd mice at E16.5-E18. Animals were sacrificed by carbon dioxide and embryos were dissected in Calcium and Magnesium free Hanks Balanced Salt Solution (CMF-HBSS) containing 15 mM HEPES and 10 mM NaHCO3, pH 7.2. Embryos were decapitated, skin and skull gently removed and cortical hemispheres were separated. After removing meninges and brain stem, the cortex was isolated, chopped with a sterile razor blade in Chop solution (Hibernate-E without Calcium containing 2% B-27) and digested in 2 mg/mL papain (Worthington) dissolved in Hibernate-E without Calcium for 30 min at 30° C. Cortices were triturated for 10-15 times with a fire-polished silanized Pasteur pipette in Hibernate-E without Calcium containing 2% B-27, 0.01% DNaseI, 1 mg/mL BSA, and 1 mg/mL Ovomucoid Inhibitor. Undispersed pieces were allowed to settle by gravity for 1 min and the supernatant was centrifuged for 3 min at 228 g. The pellet was resuspended in Hibernate-E containing 2% B-27, 0.01% DNaseI, 1 mg/mL BSA, 1 mg/mL Ovomucoid Inhibitor and diluted with Hibernate-E containing 2% B-27. After the second centrifugation step (3 min at 228 g), the pellet was resuspended in nutrition medium without glutamate (Neurobasal, 2% B-27, 0.5 mM glutamine, 1% Penicillin-Streptomycin). Cells were counted in a hemacytometer and seeded in nutrition medium on poly-D-lysine pre-coated plates. Cells were cultured at 37° C.; 95% humidity and 5% CO2. All wells were handled the same way. On DIV8, cells were treated with the compounds for the evaluation of the neurotoxic effect. On DIV9, the MTT and LDH assays were performed as described below. The experiments were performed in six technical replicates for all groups per experiment.
MTT viability assay: Viability of cultures was determined on DIV9 by the MTT assay using a plate-reader (570 nm). MTT solution was added to each well in a final concentration of 0.5 mg/mL. After 2 h the MTT containing medium was aspirated. Cells were lysed in 3% SDS and the formazan crystals were dissolved in isopropanol/HCl. Optical density was measured with a plate-reader at wavelength 570 nm. Cell survival rate was expressed as optical density (OD). Values were calculated as percent of control values (vehicle control).

[2] = molecular target: T1, recombinant human sEH (hsEH) (Homo sapiens, UniProt P34913); test: In vitro determination of sEH inhibitory activity (fluorescent PHOME assay)
T1 sequence (P34913 1-555): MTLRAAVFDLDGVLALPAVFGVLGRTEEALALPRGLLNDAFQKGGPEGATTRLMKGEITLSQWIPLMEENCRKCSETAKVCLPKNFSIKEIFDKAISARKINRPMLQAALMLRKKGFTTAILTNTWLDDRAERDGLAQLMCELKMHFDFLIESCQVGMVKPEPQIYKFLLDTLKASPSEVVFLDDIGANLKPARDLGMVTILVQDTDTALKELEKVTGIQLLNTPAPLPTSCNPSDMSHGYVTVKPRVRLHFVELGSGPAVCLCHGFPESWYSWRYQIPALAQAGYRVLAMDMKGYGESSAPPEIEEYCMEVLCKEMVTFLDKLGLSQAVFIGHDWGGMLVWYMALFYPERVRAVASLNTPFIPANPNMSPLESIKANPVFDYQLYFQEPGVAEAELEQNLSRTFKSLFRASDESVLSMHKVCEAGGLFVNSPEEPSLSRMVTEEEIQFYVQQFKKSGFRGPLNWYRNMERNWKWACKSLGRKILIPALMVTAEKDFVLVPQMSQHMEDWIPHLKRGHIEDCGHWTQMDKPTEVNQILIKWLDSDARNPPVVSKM
Description: Control compound (TPPU): N-[1-(1-Oxopropyl)-4-piperidinyl]-N′-[4-(trifluoromethoxy)phenyl]urea.
Five μL of DMSO were added to background and positive control wells, and then 5 μL of inhibitor solution were added in the inhibitor wells. Five μL of the solution of hsEH were added to the positive control and inhibitor wells and the mixture was stirred. A 1/21 dilution of the solution of PHOME with assay buffer was prepared according to the final volume required, and then 105 μL of each well were added. The plate was carefully shaken for 10 seconds and was incubated for 5 minutes at room temperature. […] The intensity of fluorescence was used to analyze and calculate the IC50 values. Results were obtained by regression analysis from at least three data points in a linear region of the curve. IC50 values are average of minimum three independent replicates.

[3] = Parallel artificial membrane permeation assay for blood-brain barrier (PAMPA-BBB); type: in vitro ADME, porcine; conditions: for Papp: pig, PBS:EtOH (70:30), read-out: Blood-brain barrier permeability Pe; for CNS prediction: predictive penetration in the CNS from Pe
Description: A parallel artificial membrane permeation assay for blood-brain barrier (PAMPA-BBB) was used to evaluate the brain penetration of compounds of formula I, following the method described by L. Di et al., “High throughput artificial membrane permeability assay for blood-brain barrier”, European Journal of Medicinal Chemistry 2003, vol. 38. pp. 223-232. The in vitro permeability (Pe) of the test compounds through a lipid extract of porcine brain membrane was determined. Assayed compounds were tested using a mixture of PBS:EtOH (70:30). Assay validation was made by comparing the experimental and reported permeability values of a set of fourteen commercial drugs and a lineal correlation between experimental and reported permeability values of the fourteen commercial drugs was obtained (y=1.678 x−1.447; R^2=0.9313). From this equation and taking into account the limits established by Di et al. for BBB permeation, the ranges of permeability were established, as follows. Compounds of high BBB permeation (CNS+): Pe (10^−6 cm s^−1)>5.26; compounds of low BBB permeation (CNS−): Pe (10^−6 cm s^−1)<1.91; and compounds of uncertain BBB permeation (CNS+/−): 5.26>Pe (10^−6 cm s^−1)>1.91. The permeability results are averages of three different experiments in triplicate and a predictive penetration in the CNS is also given (Table 5).

SMILES	primary cortical neuronal cell viability, MTT ([1]; compound 0.001 μM)	primary cortical neuronal cell viability, MTT ([1]; compound 0.01 μM)	primary cortical neuronal cell viability, MTT ([1]; compound 0.05 μM)	primary cortical neuronal cell viability, MTT ([1]; compound 0.2 μM)	primary cortical neuronal cell viability, MTT ([1]; compound 1 μM)	primary cortical neuronal cell viability, MTT ([1]; compound 5 μM)	primary cortical neuronal cell viability, MTT ([1]; compound 20 μM)	primary cortical neuronal cell viability, MTT ([1]; compound 100 μM)	IC50 [2]	Papp [3]	CNS prediction [3]
CCC12CC3CC(C1)CC(NC(=O)NCCCn1cncc1C)(C3)C2 [Id, 1-(3-ethyladamantan-1-yl)-3-[3-(5-methyl-1H-imidazol-1-yl)propyl]urea]	110 % of vehicle control	107 % of vehicle control	100 % of vehicle control	99 % of vehicle control	99 % of vehicle control	93 % of vehicle control	89 % of vehicle control	53 % of vehicle control	3.3 nM	> 30 ×10⁻⁶ cm/s	CNS+ (Compounds of high BBB permeation (CNS+): Pe (10^−6 cm s^−1)>5.26)
Cc1cncn1CCCNC(=O)NC1C2CC3CC(C2)CC1C3 (centres unmarked) [Ii, 1-(adamantan-2-yl)-3-[3-(5-methyl-1H-imidazol-1-yl)propyl]urea]	101 % of vehicle control	95 % of vehicle control	99 % of vehicle control	96 % of vehicle control	101 % of vehicle control	101 % of vehicle control	101 % of vehicle control	55 % of vehicle control	4.3 nM	> 30 ×10⁻⁶ cm/s	CNS+ (Compounds of high BBB permeation (CNS+): Pe (10^−6 cm s^−1)>5.26)
Cc1cncn1CCCNC(=O)NC12CC3CC(CC(C)(C3)O1)C2 [Ir, 1-[3-(5-methyl-1H-imidazol-1-yl)propyl]-3-(3-methyl-2-oxaadamantan-1-yl)urea]	97 % of vehicle control	97 % of vehicle control	93 % of vehicle control	99 % of vehicle control	101 % of vehicle control	99 % of vehicle control	99 % of vehicle control	87 % of vehicle control	860 nM	6.9 ×10⁻⁶ cm/s	CNS+ (Compounds of high BBB permeation (CNS+): Pe (10^−6 cm s^−1)>5.26)
CCC12CC3CC(C1)CC(NC(=O)NCCCn1cncc1C)(C3)O2 [Is, 1-(3-ethyl-2-oxaadamantan-1-yl)-3-[3-(5-methyl-1H-imidazol-1-yl)propyl]urea]	104 % of vehicle control	102 % of vehicle control	103 % of vehicle control	96 % of vehicle control	101 % of vehicle control	103 % of vehicle control	101 % of vehicle control	86 % of vehicle control	2800 nM	> 30 ×10⁻⁶ cm/s	CNS+ (Compounds of high BBB permeation (CNS+): Pe (10^−6 cm s^−1)>5.26)
